Experimental data from ChEMBL document CHEMBL4196111, “ROR(GMMA)T Modulating Activity for the Treatment of Cancers” (ACS Med Chem Lett, 2018).

target: T1, Nuclear receptor ROR-gamma (Mus musculus) (UniProt P51450); test: Modulation of RORgammat in mouse Th17 cells assessed as […] IL17A production at 3 uM relative to control; type: cell-based
T1 sequence (whole entry): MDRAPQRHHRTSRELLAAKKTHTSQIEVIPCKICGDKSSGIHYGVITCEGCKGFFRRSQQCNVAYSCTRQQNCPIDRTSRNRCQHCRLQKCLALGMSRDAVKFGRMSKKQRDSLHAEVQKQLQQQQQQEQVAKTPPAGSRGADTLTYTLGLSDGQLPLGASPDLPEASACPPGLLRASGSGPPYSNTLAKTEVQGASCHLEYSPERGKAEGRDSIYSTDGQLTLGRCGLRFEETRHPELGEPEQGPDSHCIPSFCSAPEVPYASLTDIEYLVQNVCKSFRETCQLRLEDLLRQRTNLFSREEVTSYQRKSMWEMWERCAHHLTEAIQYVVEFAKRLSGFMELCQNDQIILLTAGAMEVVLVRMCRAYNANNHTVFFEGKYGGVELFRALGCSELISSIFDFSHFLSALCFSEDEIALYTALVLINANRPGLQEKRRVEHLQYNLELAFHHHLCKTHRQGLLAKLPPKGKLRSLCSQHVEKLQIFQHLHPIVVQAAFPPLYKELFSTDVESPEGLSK

Point of comparison: `CS(=O)(=O)c1ccc(CNC(=O)c2ccc3c(n2)OCCN3c2cc(C3CC3)nc(C3CC3)c2)cc1`, Activity 373%. Against it:
- CCS(=O)(=O)c1ccc(CNC(=O)c2ccc3c(n2)CCCN3c2cc(C3CC3)nc(C3CC3)c2)nc1 — higher, 533%
- CCOC(=O)c1cc(S(=O)(=O)CC)ccc1CNC(=O)c1ccc2c(n1)CCCN2c1cc(C2CC2)nc(C2CC2)c1 — higher, 572%
- CS(=O)(=O)c1ccc(CNC(=O)c2ccc3c(n2)CCCN3c2cc(C3CC3)nc(C3CC3)c2)c(C(N)=O)c1 — higher, 483%
- CS(=O)(=O)c1ccc(C(CO)NC(=O)c2ccc3c(n2)CCCN3c2cc(C3CC3)nc(C3CC3)c2)cc1 (stereo not drawn) — higher, 533%
- CS(=O)(=O)c1ccc(CNC(=O)c2ccc3c(c2)OCCC3c2cc(C3CC3)nc(C3CC3)c2)nc1 (stereo not drawn) — higher, 443%
- CS(=O)(=O)c1ccc(CNC(=O)c2ccc3c(n2)CCCN3c2cc(C3CC3)nc(C3CC3)c2)nc1 — higher, 452%
- CS(=O)(=O)c1ccc(CNC(=O)c2ccc3c(n2)OCCN3c2cc(C3CC3)nc(C3CC3)c2)c(F)c1 — lower, 324%
